Experimental findings from US20250100996A1, “HETEROCYCLOALKYL AND HETEROARYL COMPOUNDS AND PHARMACEUTICAL COMPOSITIONS THAT MODULATE IKZF2” (Plexium, Inc., priority 2021, published 2025) are described below.

The target of one assay is T1, IKZF3 (Aiolos) (Homo sapiens, UniProt Q9UKT9).
T1 construct: Leu-Asp junction (codons ctcgac before the linker); mScarlet (behind P2A) (C, cleaved yes); expressed in transfected cells
Description: IKZF3 reporter degradation assay (HEK 293T IKZF3-mNeonGreen reporter cell line). Type of assay: cell-based. The conditions noted are these: HEK 293T IKZF3-mNeonGreen reporter, 24 hours incubation; for inhibition at 1 µM: HEK-293T, 24 h. The procedure, abridged:
(§1)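 Stable clonal HEK 293T lines express each IKZF-mNeonGreen-P2A-mScarlet fusion. Cells were seeded, attached overnight, then given compound (≤0.5% DMSO, quadruplicate) for 24 h at 37° C. Imaged for percent mNeonGreen-positive cells, segmented on mScarlet. DC50 from four-parameter logistic fit.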

The next assay addresses T2, IKZF1 (Ikaros) (Homo sapiens, UniProt Q13422).
T2 construct: mScarlet (behind P2A) (C, cleaved yes); expressed in transfected cells
Briefly: IKZF1 reporter degradation assay (HEK 293T IKZF1-mNeonGreen reporter cell line). Type of assay: cell-based. The conditions noted are these: HEK 293T IKZF1-mNeonGreen reporter, 24 hours incubation. The procedure, abridged: as §1

Assay [1] concerns the target T3, IKZF2 (Helios) (Homo sapiens, UniProt Q96SW2+Q9UKS7).
T3 construct: Leu-Asp junction (codons ctcgac before the linker); mScarlet (behind P2A) (C, cleaved yes); expressed in transfected cells
Description: IKZF2 reporter degradation assay (HEK 293T IKZF2-mNeonGreen reporter cell line). Type of assay: cell-based. Particulars: HEK-293T, 24 h, @ 1 μM, HEK 293T IKZF2-mNeonGreen reporter, 24 hours incubation. Summed up: as §1

Assay [2] addresses T4, IKZF2 (Helios) (Homo sapiens, UniProt Q9UKS7).
T4 construct: Leu-Asp junction (codons ctcgac before the linker); mScarlet (behind P2A) (C, cleaved yes); expressed in transfected cells
Described as above. Format: cell-based. Particulars: HEK 293T IKZF2-mNeonGreen reporter, 24 hours incubation. Summed up: as §1

In assay [3] the target is T5, human E3 ligase component cereblon (CRBN) (Homo sapiens, UniProt Q96SW2).
T5 construct: host or cells: HEK293T
T5 sequence (Q96SW2 whole entry): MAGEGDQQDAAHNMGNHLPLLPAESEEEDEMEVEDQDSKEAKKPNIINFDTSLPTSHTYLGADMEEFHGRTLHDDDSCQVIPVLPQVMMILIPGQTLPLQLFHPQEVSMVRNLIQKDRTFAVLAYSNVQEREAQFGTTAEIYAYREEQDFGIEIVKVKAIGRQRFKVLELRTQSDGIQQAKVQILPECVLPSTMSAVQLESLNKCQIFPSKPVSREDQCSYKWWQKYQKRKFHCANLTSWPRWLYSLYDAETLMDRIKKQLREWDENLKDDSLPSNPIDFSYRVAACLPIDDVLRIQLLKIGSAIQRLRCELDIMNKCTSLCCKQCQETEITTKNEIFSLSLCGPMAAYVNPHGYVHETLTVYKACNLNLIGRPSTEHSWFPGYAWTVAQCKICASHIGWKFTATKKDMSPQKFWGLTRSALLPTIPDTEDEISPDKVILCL
T5 sequence (Q16531 whole entry partner): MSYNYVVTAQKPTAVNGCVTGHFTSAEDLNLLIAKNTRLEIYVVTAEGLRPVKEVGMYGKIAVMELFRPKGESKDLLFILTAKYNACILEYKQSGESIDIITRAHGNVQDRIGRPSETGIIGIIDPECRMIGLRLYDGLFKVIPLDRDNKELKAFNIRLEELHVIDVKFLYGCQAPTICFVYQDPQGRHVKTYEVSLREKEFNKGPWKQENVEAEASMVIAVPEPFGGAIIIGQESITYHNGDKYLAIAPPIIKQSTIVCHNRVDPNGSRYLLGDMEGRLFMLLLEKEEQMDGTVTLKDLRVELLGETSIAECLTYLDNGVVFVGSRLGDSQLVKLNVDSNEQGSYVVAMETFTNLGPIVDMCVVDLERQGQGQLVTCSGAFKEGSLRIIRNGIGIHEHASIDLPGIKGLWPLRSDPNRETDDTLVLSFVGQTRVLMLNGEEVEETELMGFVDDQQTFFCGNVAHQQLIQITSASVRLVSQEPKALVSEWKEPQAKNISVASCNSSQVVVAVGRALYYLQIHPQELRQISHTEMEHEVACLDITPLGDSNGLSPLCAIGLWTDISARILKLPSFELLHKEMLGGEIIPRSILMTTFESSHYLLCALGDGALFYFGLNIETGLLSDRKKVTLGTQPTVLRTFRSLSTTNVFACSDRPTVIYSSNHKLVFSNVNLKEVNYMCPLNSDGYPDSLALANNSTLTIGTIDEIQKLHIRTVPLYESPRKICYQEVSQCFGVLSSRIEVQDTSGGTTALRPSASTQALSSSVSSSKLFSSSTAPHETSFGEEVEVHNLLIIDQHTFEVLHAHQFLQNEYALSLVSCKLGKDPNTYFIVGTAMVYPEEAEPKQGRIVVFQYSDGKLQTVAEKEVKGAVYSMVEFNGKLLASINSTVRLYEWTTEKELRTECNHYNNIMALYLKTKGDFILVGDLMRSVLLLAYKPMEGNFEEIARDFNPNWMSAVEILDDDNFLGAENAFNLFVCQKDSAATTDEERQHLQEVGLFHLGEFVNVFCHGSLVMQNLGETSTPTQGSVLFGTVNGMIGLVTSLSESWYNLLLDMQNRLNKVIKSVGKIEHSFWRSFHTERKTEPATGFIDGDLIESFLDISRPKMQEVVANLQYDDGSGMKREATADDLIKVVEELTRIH
Briefly: Cereblon (CRBN) target engagement, NanoBRET TE Intracellular E3 Ligase Assay in transfected HEK-293T cells. Particulars: read-out: CRBN Binding EC50. Summed up:
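HEK-293T cells transiently co-transfected with NanoLuc-CRBN (N-terminal NanoLuc) and DDB1 were dosed with CRBN tracer and an 11-point compound series (typically 10 μM to 100 pM) for 2 h at 37° C. BRET at 450/610 nm gave IC50 by four-parameter logistic fit.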
In general terms: Bioluminescence resonance energy transfer reports proximity on the nanometre scale.

Molecules are shown by their SMILES.

T2 sequence (Q96SW2 whole entry partner): as the sequence (Q96SW2 whole entry) above
T2 sequence (Q16531 whole entry partner): as the sequence (Q16531 whole entry partner) above
T2 sequence (Q13422 whole entry): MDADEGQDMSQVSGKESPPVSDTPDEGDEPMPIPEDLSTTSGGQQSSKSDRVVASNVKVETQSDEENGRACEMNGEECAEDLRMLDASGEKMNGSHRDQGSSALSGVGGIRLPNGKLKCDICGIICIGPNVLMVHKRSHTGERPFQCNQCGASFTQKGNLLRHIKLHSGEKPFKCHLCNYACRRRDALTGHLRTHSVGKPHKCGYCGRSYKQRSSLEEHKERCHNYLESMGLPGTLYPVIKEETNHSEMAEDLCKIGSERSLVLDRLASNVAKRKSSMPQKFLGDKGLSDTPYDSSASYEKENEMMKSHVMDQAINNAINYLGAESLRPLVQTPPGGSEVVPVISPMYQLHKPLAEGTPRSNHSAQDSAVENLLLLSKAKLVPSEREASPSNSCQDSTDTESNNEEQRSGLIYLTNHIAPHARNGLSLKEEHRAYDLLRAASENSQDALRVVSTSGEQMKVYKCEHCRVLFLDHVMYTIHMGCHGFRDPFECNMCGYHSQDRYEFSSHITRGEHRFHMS
T1 sequence (Q96SW2 whole entry partner): as the sequence (Q96SW2 whole entry) above
T1 sequence (Q16531 whole entry partner): as the sequence (Q16531 whole entry partner) above
T1 sequence (Q9UKT9 whole entry): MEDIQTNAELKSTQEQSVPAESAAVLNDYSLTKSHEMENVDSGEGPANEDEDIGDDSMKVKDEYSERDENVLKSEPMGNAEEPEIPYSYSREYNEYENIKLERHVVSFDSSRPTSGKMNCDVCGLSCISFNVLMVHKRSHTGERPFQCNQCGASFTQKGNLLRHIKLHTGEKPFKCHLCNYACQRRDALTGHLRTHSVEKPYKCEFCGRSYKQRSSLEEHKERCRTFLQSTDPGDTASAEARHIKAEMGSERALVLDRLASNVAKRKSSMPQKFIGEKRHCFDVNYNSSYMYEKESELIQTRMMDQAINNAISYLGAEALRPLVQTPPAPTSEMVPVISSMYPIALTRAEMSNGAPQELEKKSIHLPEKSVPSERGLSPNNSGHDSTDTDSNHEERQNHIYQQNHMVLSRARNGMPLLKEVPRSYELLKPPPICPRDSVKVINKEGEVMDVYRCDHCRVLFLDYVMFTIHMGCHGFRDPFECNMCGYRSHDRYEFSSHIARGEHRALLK
T4 sequence (Q9UKS7 whole entry): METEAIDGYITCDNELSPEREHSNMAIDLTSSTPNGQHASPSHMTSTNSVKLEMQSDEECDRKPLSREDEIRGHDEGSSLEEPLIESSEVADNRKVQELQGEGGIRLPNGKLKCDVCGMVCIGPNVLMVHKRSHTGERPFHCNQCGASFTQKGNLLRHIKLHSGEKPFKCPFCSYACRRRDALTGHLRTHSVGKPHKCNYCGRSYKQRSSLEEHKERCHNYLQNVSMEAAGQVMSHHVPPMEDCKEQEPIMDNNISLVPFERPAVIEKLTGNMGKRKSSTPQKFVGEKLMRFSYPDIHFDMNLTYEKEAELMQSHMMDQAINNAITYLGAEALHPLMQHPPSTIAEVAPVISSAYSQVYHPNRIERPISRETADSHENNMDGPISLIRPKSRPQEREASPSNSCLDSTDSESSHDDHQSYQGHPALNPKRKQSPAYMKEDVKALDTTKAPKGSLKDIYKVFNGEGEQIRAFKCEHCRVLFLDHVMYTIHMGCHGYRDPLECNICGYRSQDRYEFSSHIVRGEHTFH
T4 sequence (Q96SW2 whole entry, further chain): as the sequence (Q96SW2 whole entry) above
T4 sequence (Q16531 whole entry partner): as the sequence (Q16531 whole entry partner) above
T3 sequence (Q9UKS7 whole entry): as the sequence (Q9UKS7 whole entry) above
T3 sequence (Q96SW2 whole entry): as the sequence (Q96SW2 whole entry) above
T3 sequence (Q16531 whole entry partner): as the sequence (Q16531 whole entry partner) above

Usually DC50 stands for the concentration at which degradation of the target reaches its halfway point. The term inhibition denotes the relative decrease from the control value, in per cent. A lower inhibition goes with a response near the control. What is called EC50 is the concentration at which the effect is half-maximal. Consider `O=C1CCC(N2Cc3cc(O[C@H]4CCCC[C@@H]4N4CC(c5ccc6cccnc6c5)C4)ccc3C2=O)C(=O)N1` (stereo partly drawn) [Compound 87-B, 3-(1-oxo-5-(((1S,2S)-2-(3-(quinolin-7-yl)azetidin-1-yl)cyclohexyl)oxy)isoindolin-2-yl)piperidine-2,6-dione], for which the DC50 was more than 30 µM at IKZF3 (Aiolos), more than 30 µM on IKZF1 (Ikaros) and 0.004 µM on IKZF2 (Helios) [2]. In addition, the inhibition at 1 µM against IKZF2 (Helios) [1] stood at 87.5%. For the same molecule, the EC50 in assay [3] is 0.003 µM.

As to `CC12CC(C(=O)N3CCC(C4CN([C@H]5CCCC[C@@H]5Oc5ccc6c(c5)CN(C5CCC(=O)NC5=O)C6=O)C4)CC3)(C1)C2` (stereo partly drawn) [Compound 28-A, 3-(5-(((1S,2S)-2-(3-(1-(3-methylbicyclo[1.1.1]pentane-1-carbonyl)piperidin-4-yl)azetidin-1-yl)cyclohexyl)oxy)-1-oxoisoindolin-2-yl)piperidine-2,6-dione], the 50% degradation concentration (DC50) on IKZF3 (Aiolos) was 0.013 µM; at IKZF1 (Ikaros), more than 30 µM; at IKZF2 (Helios) [2], 0.002 µM. For the same molecule, the inhibition at 1 µM at IKZF3 (Aiolos) stood at 67.5%; against IKZF2 (Helios) [1] it was 82.5%. In addition, in assay [3], the 50% effective concentration (EC50) amounted to 0.003 µM.

Consider `O=C1CCC(N2Cc3cc(O[C@H]4CCCC[C@@H]4N4CC(C5CCOCC5F)C4)ccc3C2=O)C(=O)N1` (stereo partly drawn) [Compound 55-A, 3-(5-(((1S,2S)-2-(3-(3-fluorotetrahydro-2H-pyran-4-yl)azetidin-1-yl)cyclohexyl)oxy)-1-oxoisoindolin-2-yl)piperidine-2,6-dione], for which the results for the DC50 at IKZF3 (Aiolos), at IKZF1 (Ikaros) and at IKZF2 (Helios) [2] were more than 30 µM, more than 30 µM and 0.005 µM, respectively. At IKZF2 (Helios) [1], this molecule registered an inhibition at 1 µM of 83.8%. In assay [3], the EC50 was 0.014 µM.

With `CC1(C(=O)N2CCC(C3CN([C@H]4CCCC[C@@H]4Oc4ccc5c(c4)CN(C4CCC(=O)NC4=O)C5=O)C3)CC2)CCCC1` (stereo partly drawn) [Compound 33-A, 3-(5-(((1S,2S)-2-(3-(1-(1-methylcyclopentane-1-carbonyl)piperidin-4-yl)azetidin-1-yl)cyclohexyl)oxy)-1-oxoisoindolin-2-yl)piperidine-2,6-dione], the DC50 is 0.006 µM at IKZF3 (Aiolos) and more than 30 µM on IKZF1 (Ikaros). For the same molecule, the inhibition at 1 µM against IKZF3 (Aiolos) was 60.8%; against IKZF2 (Helios) [1] it was 88.4%. Besides, in assay [3], the EC50 came out at 0.007 µM.

Regarding `O=C1CCC(N2Cc3cc(O[C@H]4CCCC[C@@H]4N4CC(C5CCN(C(=O)C6(F)CC6)CC5)C4)ccc3C2=O)C(=O)N1` (stereo partly drawn) [Compound 42-A, 3-(5-(((1S,2S)-2-(3-(1-(1-fluorocyclopropane-1-carbonyl)piperidin-4-yl)azetidin-1-yl)cyclohexyl)oxy)-1-oxoisoindolin-2-yl)piperidine-2,6-dione], the DC50 was 0.021 µM at IKZF3 (Aiolos), more than 30 µM at IKZF1 (Ikaros) and 0.001 µM at IKZF2 (Helios) [2]. The inhibition at 1 µM at IKZF3 (Aiolos) was determined as 31%; against IKZF2 (Helios) [1] it was 87.3%. The EC50 in assay [3] was determined as 0.003 µM.

As for `O=C1CCC(N2Cc3cc(O[C@H]4CCCC[C@@H]4N4CC(C5CCOC5)C4)ccc3C2=O)C(=O)N1` (stereo partly drawn) [Compound 14-A, 3-(1-oxo-5-(((1S,2S)-2-(3-(tetrahydrofuran-3-yl)azetidin-1-yl)cyclohexyl)oxy)isoindolin-2-yl)piperidine-2,6-dione], the DC50 at IKZF3 (Aiolos) was more than 30 µM; at IKZF1 (Ikaros), more than 30 µM; on IKZF2 (Helios) [2], 0.028 µM. At IKZF2 (Helios) [1], this molecule had an inhibition at 1 µM of 67.4%. The EC50 in assay [3] was 0.039 µM.

As for `CC1CC1C(=O)N1CCC(C2CN([C@H]3CCCC[C@@H]3Oc3ccc4c(c3)CN(C3CCC(=O)NC3=O)C4=O)C2)CC1` (stereo partly drawn) [Compound 35-A, 3-(5-(((1S,2S)-2-(3-(1-(2-methylcyclopropane-1-carbonyl)piperidin-4-yl)azetidin-1-yl)cyclohexyl)oxy)-1-oxoisoindolin-2-yl)piperidine-2,6-dione], the results for the DC50 at IKZF3 (Aiolos), at IKZF1 (Ikaros) and on IKZF2 (Helios) [2] were 8.07 µM, more than 30 µM and 0.001 µM, respectively. The inhibition at 1 µM against IKZF3 (Aiolos) was found to be 23.5%; on IKZF2 (Helios) [1], 88.2%. Moreover, in assay [3], the half-maximal effective concentration (EC50) turned out to be 0.008 µM.

Consider `CC1(C(=O)N2CCC(C3CN([C@H]4CCCC[C@@H]4Oc4ccc5c(c4)CN(C4CCC(=O)NC4=O)C5=O)C3)CC2)COC1` (stereo partly drawn) [Compound 29-A, 3-(5-(((1S,2S)-2-(3-(1-(3-methyloxetane-3-carbonyl)piperidin-4-yl)azetidin-1-yl)cyclohexyl)oxy)-1-oxoisoindolin-2-yl)piperidine-2,6-dione], for which the half-maximal degradation concentration (DC50) was more than 30 µM on IKZF3 (Aiolos), more than 30 µM on IKZF1 (Ikaros) and 0.011 µM at IKZF2 (Helios) [2]. At IKZF2 (Helios) [1], this molecule came in with an inhibition at 1 µM of 83.2%. In addition, in assay [3], the EC50 worked out at 0.067 µM.

In the case of `N#CC1(C(=O)N2CCC(C3CN([C@H]4CCCC[C@@H]4Oc4ccc5c(c4)CN(C4CCC(=O)NC4=O)C5=O)C3)CC2)CCC1` (stereo partly drawn) [Compound 30-A, 1-(4-(1-((1S,2S)-2-((2-(2,6-dioxopiperidin-3-yl)-1-oxoisoindolin-5-yl)oxy)cyclohexyl)azetidin-3-yl)piperidine-1-carbonyl)cyclobutane-1-carbonitrile], the half-maximal degradation concentration (DC50) on IKZF3 (Aiolos) was 0.014 µM; on IKZF1 (Ikaros) it was more than 30 µM; at IKZF2 (Helios) [2] it was 0.0005 µM. Moreover, the inhibition at 1 µM against IKZF3 (Aiolos) is 63.4%; on IKZF2 (Helios) [1], 84.4%. The EC50 in assay [3] was found to be 0.004 µM.

For `O=C1CCC(N2Cc3cc(O[C@H]4CCCC[C@@H]4N4CC(C5CCN(C(=O)CC6CC6)CC5)C4)ccc3C2=O)C(=O)N1` (stereo partly drawn) [Compound 34-A, 3-(5-(((1S,2S)-2-(3-(1-(2-cyclopropylacetyl)piperidin-4-yl)azetidin-1-yl)cyclohexyl)oxy)-1-oxoisoindolin-2-yl)piperidine-2,6-dione], the DC50 was 0.544 µM at IKZF3 (Aiolos), more than 30 µM at IKZF1 (Ikaros) and 0.002 µM on IKZF2 (Helios) [2]. The results for the inhibition at 1 µM at IKZF3 (Aiolos) and at IKZF2 (Helios) [1] were 24.9% and 88%, respectively. The EC50 in assay [3] was determined as 0.01 µM.

Take `O=C1CCC(N2Cc3cc(O[C@H]4CCCC[C@@H]4N4CC(C5CCN(C(=O)C6CC(F)(F)C6)CC5)C4)ccc3C2=O)C(=O)N1` (stereo partly drawn) [Compound 32-A, 3-(5-(((1S,2S)-2-(3-(1-(3,3-difluorocyclobutane-1-carbonyl)piperidin-4-yl)azetidin-1-yl)cyclohexyl)oxy)-1-oxoisoindolin-2-yl)piperidine-2,6-dione]: the DC50 at IKZF3 (Aiolos) is 0.071 µM; at IKZF1 (Ikaros) it was more than 30 µM; on IKZF2 (Helios) [2] it was 0.001 µM. In addition, the inhibition at 1 µM worked out at 24.1% against IKZF3 (Aiolos) and 84.7% on IKZF2 (Helios) [1]. The EC50 in assay [3] was 0.005 µM.

On to `CC1(C(=O)N2CCC(C3CN([C@H]4CCCC[C@@H]4Oc4ccc5c(c4)CN(C4CCC(=O)NC4=O)C5=O)C3)CC2)CC1` (stereo partly drawn) [Compound 31-A, 3-(5-(((1S,2S)-2-(3-(1-(1-methylcyclopropane-1-carbonyl)piperidin-4-yl)azetidin-1-yl)cyclohexyl)oxy)-1-oxoisoindolin-2-yl)piperidine-2,6-dione], for which the 50% degradation concentration (DC50) was 0.061 µM on IKZF3 (Aiolos), more than 30 µM at IKZF1 (Ikaros) and 0.0001 µM on IKZF2 (Helios) [2]. The inhibition at 1 µM came out at 26.2% at IKZF3 (Aiolos) and 88.2% at IKZF2 (Helios) [1]. Also, the EC50 in assay [3] stood at 0.006 µM.

For the molecule `N#CC1(C(=O)N2CCC(C3CN([C@H]4CCCC[C@@H]4Oc4ccc5c(c4)CN(C4CCC(=O)NC4=O)C5=O)C3)CC2)CC1` (stereo partly drawn) [Compound 27-A, 1-(4-(1-((1S,2S)-2-((2-(2,6-dioxopiperidin-3-yl)-1-oxoisoindolin-5-yl)oxy)cyclohexyl)azetidin-3-yl)piperidine-1-carbonyl)cyclopropane-1-carbonitrile], the 50% degradation concentration (DC50) was 0.11 µM on IKZF3 (Aiolos), not below 30 µM on IKZF1 (Ikaros) and 0.008 µM at IKZF2 (Helios) [2]. For the same molecule, the results for the inhibition at 1 µM against IKZF3 (Aiolos) and against IKZF2 (Helios) [1] were 44% and 84.6%, respectively. Also, the 50% effective concentration (EC50) in assay [3] is 0.01 µM.

With `O=C1CCC(N2Cc3cc(O[C@H]4CCCC[C@@H]4N4CC(C5CCN(S(=O)(=O)C6CCC6)CC5)C4)ccc3C2=O)C(=O)N1` (stereo partly drawn) [Compound 57-A, 3-(5-(((1S,2S)-2-(3-(1-(cyclobutylsulfonyl)piperidin-4-yl)azetidin-1-yl)cyclohexyl)oxy)-1-oxoisoindolin-2-yl)piperidine-2,6-dione], the DC50 on IKZF3 (Aiolos) was more than 30 µM; on IKZF1 (Ikaros), more than 30 µM; at IKZF2 (Helios) [2], 0.002 µM. 1 µM produced 85.4% inhibition against IKZF2 (Helios) [1]. In assay [3], the EC50 worked out at 0.003 µM.
